Experimental data as given in patent publication EP4079301A2, “COMPOSITIONS COMPRISING CANNABIDIOL AND, OPTIONALLY, BISABOLOL” (Symrise AG, priority 2021, dated 2022).

Legend:
Assay type in all cases: cell-based
epidermis and dermis = test: Control of cell viability of skin explants (Masson's trichrome staining, Goldner variant); conditions: for Cell viability Dermis / Cell viability Epidermis: explants
Procedure: The explants were distributed into 3 batches as follows:
(§1) On day 0 (D0), D1, D4, D5 and D7, the product P was topically applied on the basis of 2 mg/cm^2 (± 2µL per explant) and spread using a small spatula. […] The culture medium was half renewed (1 ml per well) on D1, D4, D5 and D7.
(§2) On day 0 (D0), the 3 explants from the batch T0 were collected and cut into 2 parts: half was fixed in formalin buffered solution and half was frozen at -80°C. On D5 and D9, the 3 explants of each batch were collected and processed in the same way than on day 0; the fourth explants were kept frozen at -80°C. The culture media of all explants were collected on D1, D4, D5, D7 (1 ml per explant) and on day 9 (2 ml per explant) and stored at -20°C for cortisol dosage.
(§3) After fixation for 24 hours in buffered formalin solution, the samples were dehydrated and impregnated in paraffin using a Leica PEARL dehydration automat. The samples were then paraffin-embedded using a Leica EG 1160 embedding station. 5-µm-thick sections of formol fixed paraffin-embedded (FFPE) skin sections were realized using a Leica RM 2125 Minot-type microtome, and the sections were then mounted on Superfrost® Plus glass slides. The frozen samples were cut into 7-µm-thick sections using a Leica CM 3050 cryostat. Sections were then mounted on Superfrost® plus silanized glass slides. Microscopical observations were realized using a Leica DMLB, a BX43 or BX63 Olympus microscope. Pictures were digitized with an Olympus DP72 or DP74 camera and the cellSens dimension data storing software (Olympus).
The observation of the cell viability of the epidermis and dermis was performed after staining of formalin-fixed paraffin- embedded (FFPE) skin sections according to Masson's trichrome, Goldner variant.

Beta-endorphin = Beta-endorphin immunostaining of explant skin sections with image analysis; conditions: for Beta-endorphin in the epidermis (% surface), Average: image analysis
Procedure: as §1, §2, §3
The immunostaining was assessed by microscopical observation and image analysis.
The images analyses were performed on all the images of each batch, according to the following method using cellSens software. The process is illustrated in Figure 2. For each batch of explants, the percentage of the region of interest covered by the staining (stained surface percentage) is determined by image analysis according to the previously described process.
The stained surface percentage (Surf%) for each treatment was compared to the untreated condition => P vs T.

Cortisol = Cortisol competitive ELISA on explant culture media; conditions: for Cortisol (ng/mL), Mean: released in BEM culture medium
Procedure: as §1, §2
Cortisol competitive assay was performed with human Cortisol ELISA kit (Enzo life sciences, ref. 25-0358-ADI-901-071). According to provider's guidelines, the culture media were diluted at 1/200 and the Cortisol standards were incubated for 2 hours at room temperature with a monoclonal antibody specific to Cortisol in a sample or an alkaline phosphatase molecule which has Cortisol covalently attached to it. […] The intensity of the bound yellow color is inversely proportional to the concentration of Cortisol in either standards or samples. Absorbance at 405 nm was measured using the M200Pro Tecan microplate reader and Magellan7 software. Cortisol assay was performed on culture BEM media on day 5 (pool of D1, D4, D5 culture media) and day 9 (pool of D7 and D9 culture media). The concentration of cortisol was expressed in ng/ml.

[1] = topical 2 mg/cm^2, day 5 (batch PJ5)
[2] = topical 2 mg/cm^2, day 9 (batch PJ9)

C=C(C)[C@@H]1CCC(C)=C[C@H]1c1c(O)cc(CCCCC)cc1O [Cannabidiol]
Effect of product application on cell viability (epidermis and dermis; D5, compared to the batch TJ5): no modification | Effect of product application on cell viability (epidermis and dermis; D9, compared to the batch TJ9): no modification | Cell viability Dermis (epidermis and dermis; [1]): good | Cell viability Epidermis (epidermis and dermis; [1]): good | Cell viability Dermis (epidermis and dermis; [2]): good | Cell viability Epidermis (epidermis and dermis; [2]): fairly good | Effect of product application on beta-endorphin expression (microscopical observation of staining in the epidermis) (Beta-endorphin; D5, compared to the batch TJ5): slight increase | increase of beta-endorphin expression (Beta-endorphin; D5, compared to the batch TJ5, image analysis): 24% | Effect of product application on beta-endorphin expression (microscopical observation of staining in the epidermis) (Beta-endorphin; D9, compared to the batch TJ9): slight increase | increase of beta-endorphin expression (Beta-endorphin; D9, compared to the batch TJ9, image analysis): 30% | Beta-endorphin in the epidermis (% surface), Average (Beta-endorphin; day 5 (batch PJ5)): 33.1 % surface | Beta-endorphin in the epidermis (% surface), Average (Beta-endorphin; day 9 (batch PJ9)): 12.5 % surface | decrease of cortisol (Cortisol; D5, compared to the batch TJ5): 24% | decrease of cortisol (Cortisol; D9, compared to the batch TJ9): 18% | Cortisol (ng/mL), Mean (Cortisol; day 5 (pool of D1, D4, D5), batch PJ5): 246.5 ng/mL | Cortisol (ng/mL), Mean (Cortisol; day 9 (pool of D7 and D9), batch PJ9): 255.1 ng/mL
